Consider seven compounds from patent US20260285888A1, “HETEROCYCLIC COMPOUND AND USE THEREOF” (OTSUKA PHARMACEUTICAL CO., LTD., priority 2023, published 2026).

Series [1] is described as follows: in vitro. The class given is cell-based, human. Conditions: human, differentiated hl-60 cells, 300 μmol/L, about 24 hours, PMA-differentiated HL-60 cells, LDH; no-treatment 0%, cell lysis buffer 100%; read-out: cytotoxicity (%) Evaluation compound results. The method in brief: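 Cytotoxicity (%) from supernatant LDH activity after ~24 h treatment at 300 μmol/L final, normalised to no-treatment (0%) and lysis buffer (100%). Cells were PMA-differentiated (10 nM, ~72 h) HL-60 in 2% FBS medium; triplicate means.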

Series [2] in a line: Study for confirmation of conversion to brexpiprazole in a buffer (stability of the evaluation compounds). The class given is physicochemical. Conditions: in buffer, average of duplicate; for Concentration of brexpiprazole formed: 60-minute reaction sample; for Concentration of evaluation compound decreased: decrease in 60-minute vs 0-minute reaction sample. The method in brief:
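Compounds (final 1 μmol/L, from 100 μmol/L working solutions) incubated in buffer at 37° C. for 0 or 60 min, in duplicate, after 3 min pre-incubation of the reaction solution. Reactions stopped with acetonitrile/isopropanol (4:1) containing internal standards; compound and formed brexpiprazole quantified against 0.01–1 μmol/L calibration samples.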

On to `CCOCCC(=O)OCOP(=O)([O-])OC[N+]1(CCCCOc2ccc3ccc(=O)[nH]c3c2)CCN(c2cccc3sccc23)CC1` [EX 29, (4-(benzo[b]thiophen-4-yl)-1-(4-((2-oxo-1,2-dihydroquinolin-7-yl)oxy)butyl)piperazin-1-ium-1-yl)methyl (((3-ethoxypropanoyl)oxy)methyl) phosphate], for which the cytotoxicity at 24 h, 300 µM in series [1] is -4%. Moreover, in series [2], the “Concentration of brexpiprazole formed” value is 0.00 µM and the “Concentration of evaluation compound decreased” value was -0.01 µM.

With `CCNP(=O)([O-])OC[N+]1(CCCCOc2ccc3ccc(=O)[nH]c3c2)CCN(c2cccc3sccc23)CC1` [EX 151, (4-(benzo[b]thiophen-4-yl)-1-(4-((2-oxo-1,2-dihydroquinolin-7-yl)oxy)butyl)piperazin-1-ium-1-yl)methyl ethylphosphoramidate], the cytotoxicity at 24 h, 300 µM in series [1] is -6%. In series [2], the “Concentration of brexpiprazole formed” value was 0.00 µM and the “Concentration of evaluation compound decreased” value is -0.01 µM.

As for `CC1(C)OCC(C(=O)OCOP(=O)([O-])OC[N+]2(CCCCOc3ccc4ccc(=O)[nH]c4c3)CCN(c3cccc4sccc34)CC2)CO1` [EX 67, (4-(benzo[b]thiophen-4-yl)-1-(4-((2-oxo-1,2-dihydroquinolin-7-yl)oxy)butyl)piperazin-1-ium-1-yl)methyl (((2,2-dimethyl-1,3-dioxane-5-carbonyl)oxy)methyl) phosphate], the cytotoxicity at 24 h, 300 µM in series [1] is 1%. Further, in series [2], the “Concentration of brexpiprazole formed” value was 0.00 µM and the “Concentration of evaluation compound decreased” value came to 0.09 µM.

On to `O=c1ccc2ccc(OCCCC[N+]3(COP(=O)([O-])OCCOCC4CC4)CCN(c4cccc5sccc45)CC3)cc2[nH]1` [EX 52, (4-(benzo[b]thiophen-4-yl)-1-(4-((2-oxo-1,2-dihydroquinolin-7-yl)oxy)butyl)piperazin-1-ium-1-yl)methyl (2-(cyclopropylmethoxy)ethyl) phosphate], for which the cytotoxicity at 24 h, 300 µM in series [1] is -1%. In addition, in series [2], the “Concentration of brexpiprazole formed” value was determined as 0.00 µM and the “Concentration of evaluation compound decreased” value is -0.04 µM.

As to `CC1(C)O[C@H]2[C@@H](O1)[C@@H](COP(=O)([O-])OC[N+]1(CCCCOc3ccc4ccc(=O)[nH]c4c3)CCN(c3cccc4sccc34)CC1)O[C@@H]1OC(C)(C)O[C@@H]12` [EX 100, (4-(benzo[b]thiophen-4-yl)-1-(4-((2-oxo-1,2-dihydroquinolin-7-yl)oxy)butyl)piperazin-1-ium-1-yl)methyl (((3aR,5R,5aS,8aS,8bR)-2,2,7,7-tetramethyltetrahydro-5H-bis([1,3]dioxolo)[4,5-b:4′,5′-d]pyran-5-yl)methyl)phosphate], in series [1], the cytotoxicity at 24 h, 300 µM is -3%. In series [2], the “Concentration of brexpiprazole formed” value worked out at 0.00 µM and the “Concentration of evaluation compound decreased” value came to 0.05 µM.

For `O=c1ccc2ccc(OCCCC[N+]3(COP(=O)([O-])OCC4CC4)CCN(c4cccc5sccc45)CC3)cc2[nH]1` [EX 91, (4-(benzo[b]thiophen-4-yl)-1-(4-((2-oxo-1,2-dihydroquinolin-7-yl)oxy)butyl)piperazin-1-ium-1-yl)methyl (cyclopropylmethyl) phosphate], the cytotoxicity at 24 h, 300 µM in series [1] was determined as 17%. For the same compound, in series [2], the “Concentration of brexpiprazole formed” value stood at 0.00 µM and the “Concentration of evaluation compound decreased” value was 0.12 µM.

Turning to `CC(=O)OCCCCCCOP(=O)([O-])OC[N+]1(CCCCOc2ccc3ccc(=O)[nH]c3c2)CCN(c2cccc3sccc23)CC1` [EX 101, 6-acetoxyhexyl ((4-(benzo[b]thiophen-4-yl)-1-(4-((2-oxo-1,2-dihydroquinolin-7-yl)oxy)butyl)piperazin-1-ium-1-yl)methyl) phosphate], the cytotoxicity at 24 h, 300 µM in series [1] is 16%. Moreover, in series [2], the “Concentration of brexpiprazole formed” value was determined as 0.00 µM and the “Concentration of evaluation compound decreased” value was 0.08 µM.
